Measured values reported in PMC5218480 (PLoS ONE, 2017).

Tested on: MV-4-11 cells
Experiment: Gene expression microarray analysis (Affymetrix PrimeView) and GSEA
Format: cell-based, human
Set-up: RFU PODN (11730768_x_at) / Fold change /veh PODN (11730768_x_at) / RFU LINC00158 (11744669_a_at) / Fold change /veh LINC00158 (11744669_a_at) / RFU DUSP10 (11751237_a_at) / Fold change /veh DUSP10 (11751237_a_at) / RFU ID3 (11757404_x_at) / Fold change /veh ID3 (11757404_x_at) / RFU PLEKHG5 (11737974_s_at) / Fold change /veh PLEKHG5 (11737974_s_at) / RFU LRRC4B (11730491_at) / Fold change /veh LRRC4B (11730491_at) / RFU GIMAP4 (11747438_a_at) / Fold change /veh GIMAP4 (11747438_a_at) / RFU KRT8 (11758183_x_at) / Fold change /veh KRT8 (11758183_x_at) / RFU CNN1 (11734310_a_at) / Fold change /veh CNN1 (11734310_a_at) / RFU VPS37D (11726825_at) / Fold change /veh VPS37D (11726825_at) / RFU C10orf10 (11716522_x_at) / Fold change /veh C10orf10 (11716522_x_at) / RFU KIR2DL2 /// KIR2DL4 /// KIR2DL5A /// KIR2DL5B /// KIR2DS1 /// KIR2DS2 /// KIR2DS3 /// KIR2DS4 /// KIR3DL3 /// KIR3DL3 /// KIR3DS1 (11738374_at) / Fold change /veh KIR2DL2 /// KIR2DL4 /// KIR2DL5A /// KIR2DL5B /// KIR2DS1 /// KIR2DS2 /// KIR2DS3 /// KIR2DS4 /// KIR3DL3 /// KIR3DL3 /// KIR3DS1 (11738374_at) / RFU C1QL1 (11718748_at) / Fold change /veh C1QL1 (11718748_at) / RFU TMPRSS4 (11747572_a_at) / Fold change /veh TMPRSS4 (11747572_a_at) / RFU HAMP (11756126_x_at) / Fold change /veh HAMP (11756126_x_at) / RFU RNFT2 (11725882_a_at) / Fold change /veh RNFT2 (11725882_a_at) / RFU NR4A2 (11747474_a_at) / Fold change /veh NR4A2 (11747474_a_at) / RFU ABCC12 (11746883_a_at) / Fold change /veh ABCC12 (11746883_a_at) / RFU TMEM136 (11760407_x_at) / Fold change /veh TMEM136 (11760407_x_at) / RFU CLDN22 /// WWC2 (11732394_at) / Fold change /veh CLDN22 /// WWC2 (11732394_at) / RFU HLA-DPB1 (11760878_x_at) / Fold change /veh HLA-DPB1 (11760878_x_at) / RFU SPINT1 (11716480_a_at) / Fold change /veh SPINT1 (11716480_a_at) / RFU GAP43 (11754022_s_at) / Fold change /veh GAP43 (11754022_s_at) / RFU A4GNT (11735810_at) / Fold change /veh A4GNT (11735810_at) / RFU PRB3 (11715151_x_at) / Fold change /veh PRB3 (11715151_x_at) / RFU TUBB4B (11761932_at) / Fold change /veh TUBB4B (11761932_at) / RFU CAPN14 (11732068_a_at) / Fold change /veh CAPN14 (11732068_a_at) / RFU TMCC2 (11721928_a_at) / Fold change /veh TMCC2 (11721928_a_at) / RFU IRGQ (11745062_a_at) / Fold change /veh IRGQ (11745062_a_at) / RFU FAM174B (11720279_a_at) / Fold change /veh FAM174B (11720279_a_at) / RFU TMPRSS4 (11748680_a_at) / Fold change /veh TMPRSS4 (11748680_a_at) / RFU FAM212B (11763350_a_at) / Fold change /veh FAM212B (11763350_a_at) / RFU PLEKHG5 (11743358_a_at) / Fold change /veh PLEKHG5 (11743358_a_at) / RFU ZSCAN30 (11745921_a_at) / Fold change /veh ZSCAN30 (11745921_a_at) / RFU CMKLR1 (11741424_a_at) / Fold change /veh CMKLR1 (11741424_a_at) / RFU LOC101060620 /// MAPK8IP1 (11723275_at) / Fold change /veh LOC101060620 /// MAPK8IP1 (11723275_at) / RFU SPTSSB (11747773_x_at) / Fold change /veh SPTSSB (11747773_x_at) / RFU PRSS12 (11739890_at) / Fold change /veh PRSS12 (11739890_at) / RFU BIN1 (11741810_x_at) / Fold change /veh BIN1 (11741810_x_at) / RFU WNT11 (11732464_a_at) / Fold change /veh WNT11 (11732464_a_at) / RFU C10orf10 (11716521_a_at) / Fold change /veh C10orf10 (11716521_a_at) / RFU C5orf56 (11738089_at) / Fold change /veh C5orf56 (11738089_at) / RFU CYB561 (11721691_x_at) / Fold change /veh CYB561 (11721691_x_at) / RFU ANKRD19P (11752326_a_at) / Fold change /veh ANKRD19P (11752326_a_at) / RFU OR2T12 /// OR2T33 /// OR2T8 (11738714_s_at) / Fold change /veh OR2T12 /// OR2T33 /// OR2T8 (11738714_s_at) / RFU VCAN (11748164_a_at) / Fold change /veh VCAN (11748164_a_at) / RFU JSRP1 (11732532_at) / Fold change /veh JSRP1 (11732532_at) / RFU KRTAP10-11 (11738290_x_at) / Fold change /veh KRTAP10-11 (11738290_x_at) / RFU MYO3A (11730013_a_at) / Fold change /veh MYO3A (11730013_a_at) / RFU EBF3 (11725865_a_at) / Fold change /veh EBF3 (11725865_a_at) / RFU CAMK2N1 (11719241_x_at) / Fold change /veh CAMK2N1 (11719241_x_at) / RFU C5orf56 (11738088_a_at) / Fold change /veh C5orf56 (11738088_a_at) / RFU OLFML3 (11715873_a_at) / Fold change /veh OLFML3 (11715873_a_at) / RFU LOC100653217 /// NTM (11731650_a_at) / Fold change /veh LOC100653217 /// NTM (11731650_a_at) / RFU MAPK11 (11762145_a_at) / Fold change /veh MAPK11 (11762145_a_at) / RFU FIZ1 (11724087_x_at) / Fold change /veh FIZ1 (11724087_x_at) / RFU OASL (11726364_x_at) / Fold change /veh OASL (11726364_x_at) / RFU SOX15 (11748057_x_at) / Fold change /veh SOX15 (11748057_x_at) / RFU CD79A (11719716_a_at) / Fold change /veh CD79A (11719716_a_at) / RFU HIST1H1D (11736915_at) / Fold change /veh HIST1H1D (11736915_at) / RFU CASKIN2 (11723855_a_at) / Fold change /veh CASKIN2 (11723855_a_at) / RFU LOC730098 (11760151_x_at) / Fold change /veh LOC730098 (11760151_x_at) / RFU OR4N2 (11742367_at) / Fold change /veh OR4N2 (11742367_at) / RFU PRRT2 (11749266_a_at) / Fold change /veh PRRT2 (11749266_a_at) / RFU SNX32 (11753110_a_at) / Fold change /veh SNX32 (11753110_a_at) / RFU CDHR5 (11726645_a_at) / Fold change /veh CDHR5 (11726645_a_at) / RFU RCAN1 (11760418_a_at) / Fold change /veh RCAN1 (11760418_a_at) / RFU FAM167A (11723789_a_at) / Fold change /veh FAM167A (11723789_a_at) / RFU FAM26E (11764081_at) / Fold change /veh FAM26E (11764081_at) / RFU ISYNA1 (11749810_s_at) / Fold change /veh ISYNA1 (11749810_s_at) / RFU ACY1 (11761880_at) / Fold change /veh ACY1 (11761880_at) / RFU 11764098_at / Fold change /veh 11764098_at / RFU SAMD14 (11745864_x_at) / Fold change /veh SAMD14 (11745864_x_at) / RFU NPB (11741838_a_at) / Fold change /veh NPB (11741838_a_at) / RFU TMPRSS6 (11731388_a_at) / Fold change /veh TMPRSS6 (11731388_a_at) / RFU KRTAP10-2 (11738614_at) / Fold change /veh KRTAP10-2 (11738614_at) / RFU ARHGAP8 /// PRR5-ARHGAP8 (11727945_x_at) / Fold change /veh ARHGAP8 /// PRR5-ARHGAP8 (11727945_x_at) / RFU KRTAP5-7 /// NADSYN1 (11734609_at) / Fold change /veh KRTAP5-7 /// NADSYN1 (11734609_at) / RFU RASL12 (11751679_a_at) / Fold change /veh RASL12 (11751679_a_at) / RFU CDKN2B (11736163_a_at) / Fold change /veh CDKN2B (11736163_a_at) / RFU PRF1 (11729649_at) / Fold change /veh PRF1 (11729649_at) / RFU, ZNF638 /// ZNF638-IT1 / Fold change vs veh, ZNF638 /// ZNF638-IT1 / RFU, PANK3 / Fold change vs veh, PANK3 / RFU, SH3YL1 / Fold change vs veh, SH3YL1 / RFU, ZEB2 / Fold change vs veh, ZEB2 / RFU, NRIP1 / Fold change vs veh, NRIP1 / RFU, PTTG1IP / Fold change vs veh, PTTG1IP / RFU, CAPN2 / Fold change vs veh, CAPN2 / RFU, MED14 / Fold change vs veh, MED14 / RFU, SNORA58 / Fold change vs veh, SNORA58 / RFU, C1orf63 / Fold change vs veh, C1orf63 / RFU, LRRFIP1 / Fold change vs veh, LRRFIP1 / RFU, NDUFAF7 / Fold change vs veh, NDUFAF7 / RFU, SLC12A2 / Fold change vs veh, SLC12A2 / RFU, IBTK / Fold change vs veh, IBTK / RFU, ESF1 / Fold change vs veh, ESF1 / Fold change vs veh, TMEM50B / RFU, TAOK1 / Fold change vs veh, TAOK1 / RFU, ACBD3 / Fold change vs veh, ACBD3 / RFU, TMA16 / Fold change vs veh, TMA16 / RFU, RWDD3 / Fold change vs veh, RWDD3 / RFU, BCAT1 / Fold change vs veh, BCAT1 / RFU, EDEM3 / Fold change vs veh, EDEM3 / RFU, TMEM33 / Fold change vs veh, TMEM33 / RFU, WDR75 / Fold change vs veh, WDR75 / RFU, AHCTF1 / Fold change vs veh, AHCTF1 / RFU, TFRC / Fold change vs veh, TFRC / RFU, ZDHHC17 / Fold change vs veh, ZDHHC17 / RFU, NOM1 / Fold change vs veh, NOM1 / RFU, ARL8B / Fold change vs veh, ARL8B / RFU, ZBTB11 / Fold change vs veh, ZBTB11 / RFU, TAMM41 / Fold change vs veh, TAMM41 / RFU, KIAA1704 /// LOC100996395 / Fold change vs veh, KIAA1704 /// LOC100996395 / RFU, ING1 / Fold change vs veh, ING1 / RFU, TRMT61B / Fold change vs veh, TRMT61B / RFU, FUBP3 / Fold change vs veh, FUBP3 / RFU, TP53 / Fold change vs veh, TP53 / RFU, TNKS2 / Fold change vs veh, TNKS2 / RFU, ZFP14 / Fold change vs veh, ZFP14 / RFU, ACTR2 / Fold change vs veh, ACTR2 / RFU, PPP3R1 / Fold change vs veh, PPP3R1 / RFU, PIK3R1 / Fold change vs veh, PIK3R1 / RFU, HNRNPA1 / Fold change vs veh, HNRNPA1 / RFU, RNF170 / Fold change vs veh, RNF170 / RFU, ZNF28 / Fold change vs veh, ZNF28 / RFU, RNGTT / Fold change vs veh, RNGTT / RFU, OGT / Fold change vs veh, OGT / RFU, BRD1 / Fold change vs veh, BRD1 / RFU, MARS / Fold change vs veh, MARS / RFU, ZNF655 / Fold change vs veh, ZNF655 / RFU, FAHD1 / Fold change vs veh, FAHD1 / RFU, BDP1 / Fold change vs veh, BDP1 / RFU, LRRCC1 / Fold change vs veh, LRRCC1 / RFU, ARID1A / Fold change vs veh, ARID1A / RFU, ZNF146 / Fold change vs veh, ZNF146 / RFU, ZNF330 / Fold change vs veh, ZNF330 / RFU, GPN3 / Fold change vs veh, GPN3 / RFU, C9orf123 / Fold change vs veh, C9orf123 / RFU, N4BP2L2 / Fold change vs veh, N4BP2L2 / RFU, ARFIP1 / Fold change vs veh, ARFIP1 / RFU, FAM179B / Fold change vs veh, FAM179B / RFU, BCL10 / Fold change vs veh, BCL10 / RFU, UHRF1BP1L / Fold change vs veh, UHRF1BP1L / RFU, BET1 / Fold change vs veh, BET1 / RFU, CNOT2 / Fold change vs veh, CNOT2 / RFU, ZNF268 / Fold change vs veh, ZNF268 / Fold change vs veh, ZNF507 / RFU, DGCR2 / Fold change vs veh, DGCR2 / RFU, WDSUB1 / Fold change vs veh, WDSUB1 / Fold change vs veh, HSP90B1 /// MIR3652 / RFU, ADSS / Fold change vs veh, ADSS / RFU, GK / Fold change vs veh, GK / RFU, ZNF148 / Fold change vs veh, ZNF148 / RFU, TAF9 / Fold change vs veh, TAF9 / RFU, SLC1A5 / Fold change vs veh, SLC1A5 / RFU, SLMO2 / Fold change vs veh, SLMO2 / RFU, ABCC4 / Fold change vs veh, ABCC4 / RFU, LOC101060439 /// RAP1B / Fold change vs veh, LOC101060439 /// RAP1B / RFU, RFX7 / Fold change vs veh, RFX7 / RFU, GTPBP10 / Fold change vs veh, GTPBP10 / RFU, CNEP1R1 / Fold change vs veh, CNEP1R1 / RFU, BIVM-ERCC5 /// ERCC5 / Fold change vs veh, BIVM-ERCC5 /// ERCC5 / RFU, ILF3 / Fold change vs veh, ILF3 / RFU 11762660_at / Fold change /veh 11762660_at / RFU VCAN (11757783_s_at) / Fold change /veh VCAN (11757783_s_at) / RFU DDX43 (11728927_at) / Fold change /veh DDX43 (11728927_at) / RFU KRT8 (11758188_x_at) / Fold change /veh KRT8 (11758188_x_at) / RFU NKD1 (11759106_at) / Fold change /veh NKD1 (11759106_at) / RFU SRD5A1 (11742802_a_at) / Fold change /veh SRD5A1 (11742802_a_at) / RFU TPSAB1 /// TPSB2 (11721975_s_at) / Fold change /veh TPSAB1 /// TPSB2 (11721975_s_at) / RFU GSTM3 (11746129_a_at) / Fold change /veh GSTM3 (11746129_a_at) / RFU IL23R (11737362_x_at) / Fold change /veh IL23R (11737362_x_at) / RFU TMEM51 (11727254_a_at) / Fold change /veh TMEM51 (11727254_a_at) / RFU PIWIL2 (11732686_x_at) / Fold change /veh PIWIL2 (11732686_x_at) / RFU ORM1 (11744905_x_at) / Fold change /veh ORM1 (11744905_x_at) / RFU CCDC152 (11743942_at) / Fold change /veh CCDC152 (11743942_at) / RFU ECM1 (11717891_a_at) / Fold change /veh ECM1 (11717891_a_at) / RFU IL23R (11748794_a_at) / Fold change /veh IL23R (11748794_a_at) / RFU TNFAIP8L3 (11732012_x_at) / Fold change /veh TNFAIP8L3 (11732012_x_at) / RFU MBOAT4 (11741988_at) / Fold change /veh MBOAT4 (11741988_at) / RFU 11764193_at / Fold change /veh 11764193_at / RFU TMEM53 (11763286_at) / Fold change /veh TMEM53 (11763286_at) / RFU MAGEB2 (11727129_at) / Fold change /veh MAGEB2 (11727129_at) / RFU TMEM200A (11744735_a_at) / Fold change /veh TMEM200A (11744735_a_at) / RFU CCDC152 (11751479_a_at) / Fold change /veh CCDC152 (11751479_a_at) / RFU FAM211A (11726209_a_at) / Fold change /veh FAM211A (11726209_a_at) / RFU RGS16 (11746705_a_at) / Fold change /veh RGS16 (11746705_a_at) / RFU VCAN (11755009_s_at) / Fold change /veh VCAN (11755009_s_at) / RFU RHOB (11743442_s_at) / Fold change /veh RHOB (11743442_s_at) / RFU RGS16 (11720943_a_at) / Fold change /veh RGS16 (11720943_a_at) / RFU RGS16 (11720944_at) / Fold change /veh RGS16 (11720944_at) / RFU, VPS4B / Fold change vs veh, VPS4B / RFU, CREB1 / Fold change vs veh, CREB1 / RFU, DNAJC13 / Fold change vs veh, DNAJC13 / RFU, GNAQ / Fold change vs veh, GNAQ / RFU, CDK5R1 / Fold change vs veh, CDK5R1 / RFU, ZRANB3 / Fold change vs veh, ZRANB3 / RFU, CUL4A / Fold change vs veh, CUL4A / RFU, CCNY / Fold change vs veh, CCNY / RFU, UFL1 / Fold change vs veh, UFL1 / RFU, COG3 / Fold change vs veh, COG3 / RFU, DIAPH2 / Fold change vs veh, DIAPH2 / RFU, SKA2 / Fold change vs veh, SKA2 / RFU, AFF3 / Fold change vs veh, AFF3 / RFU, LMF1 / Fold change vs veh, LMF1 / RFU, IPO11 / Fold change vs veh, IPO11 / RFU, DFFB / Fold change vs veh, DFFB / RFU, FOXP1 / Fold change vs veh, FOXP1 / RFU, CARD8 / Fold change vs veh, CARD8 / RFU, STRN3 / Fold change vs veh, STRN3 / RFU, ADK / Fold change vs veh, ADK / RFU, RASSF2 / Fold change vs veh, RASSF2 / RFU, WIPF1 / Fold change vs veh, WIPF1 / RFU, LARP1B / Fold change vs veh, LARP1B / RFU, RASA1 / Fold change vs veh, RASA1 / RFU, RB1 / Fold change vs veh, RB1 / RFU, PPFIA1 / Fold change vs veh, PPFIA1 / RFU, MAT2A / Fold change vs veh, MAT2A / RFU, CCT5 / Fold change vs veh, CCT5 / RFU, WDR92 / Fold change vs veh, WDR92 / RFU, CUX1 / Fold change vs veh, CUX1 / RFU, TTC7A / Fold change vs veh, TTC7A / RFU, TMEM135 / Fold change vs veh, TMEM135 / RFU, DEPTOR / Fold change vs veh, DEPTOR / RFU, CPM / Fold change vs veh, CPM / RFU, DNAJB6 / Fold change vs veh, DNAJB6 / RFU, CACNA2D3 / Fold change vs veh, CACNA2D3 / RFU, DTX4 / Fold change vs veh, DTX4 / RFU, TFCP2 / Fold change vs veh, TFCP2 / RFU, GMCL1 /// GMCL1P1 / Fold change vs veh, GMCL1 /// GMCL1P1 / RFU, AEBP2 / Fold change vs veh, AEBP2 / RFU, SNHG1 /// SNORD22 /// SNORD25 /// SNORD26 /// SNORD27 /// SNORD28 /// SNORD29 /// SNORD31 / Fold change vs veh, SNHG1 /// SNORD22 /// SNORD25 /// SNORD26 /// SNORD27 /// SNORD28 /// SNORD29 /// SNORD31 / Fold change (Aza/veh), C12orf56 (ProbeSet 11735607_a_at) / Fold change (ACY-1035/veh), C12orf56 (ProbeSet 11735607_a_at) / Fold change (Aza/veh), FGFR1OP (ProbeSet 11751329_s_at) / Fold change (ACY-1035/veh), FGFR1OP (ProbeSet 11751329_s_at) / Fold change (Aza/veh), VPS36 (ProbeSet 11739960_a_at) / Fold change (ACY-1035/veh), VPS36 (ProbeSet 11739960_a_at) / RFU SYPL1 (11715823_x_at) / Fold change /veh SYPL1 (11715823_x_at) / RFU IGFBP7 (11715501_s_at) / Fold change /veh IGFBP7 (11715501_s_at) / RFU REEP3 (11722064_at) / Fold change /veh REEP3 (11722064_at) / RFU IGLL1 (11728026_x_at) / Fold change /veh IGLL1 (11728026_x_at): dose or concentration left out as unconfirmed
Conditions: ProbeSet 11715478_a_at; LIST B

## Nc1ncn([C@@H]2O[C@H](CO)[C@@H](O)[C@H]2O)c(=O)n1 [azacitidine]
  Fold change vs veh, TFRC: 0.85
